Measured values: patent publication US20100173845A1, “USE OF FERTIRELIN AND DELTA-ENDORPHIN AS THERAPEUTIC AGENTS” (priority 2007, published 2010)
Where a SMILES comes first, the peptide text is derived from it. Where no end group is shown, it is not given here. [ ]: non-standard residue; d: D form. pGlu = O=C1CC[C@@H](C(=O)O)N1

Experiments:
HCMV strain AD169 = assay: HCMV plaque formation assay in MRC-5 cells; conditions: for inhibition of HCMV plaque formation as compared to the virus control experiment: 10 micrograms per ml, 7-10 days, MRC-5 cells
[1] = system: hepatitis B virus (HBV) ayw strain; assay: HBV assay, secreted HBV DNA by TaqMan PCR in HepG2-2.2.15 cells; type: cell-based; conditions: 10 micrograms per ml; six days; HBV DNA in supernatant
HUVEC = assay: Endothelial tube formation assay; type: cell-based, human; conditions: 10 micrograms per ml; 20 hours
Description: […] control wes vehicle only. […] Raw data were expressed as average tubule lenghs in pixels±standard deviation.

murine spleen cells = assay: Th1/Th2 cytokine profiling assay (Ovalbumin-restimulated spleen cells, CBA kit); type: cell-based, Balb/c mice; conditions: 10 micrograms per ml, 72 hours; for production of IL-5, decreased by: numbers are decreases; for production of IL-5, decreased by / production of IFN-y, induced/increased by / production of IL-2, induced/increased by / production of TNF-alpha, induced by (increase): words state no change; for production of IFN-y, induced/increased by / production of IL-2, induced/increased by / production of TNF-alpha, induced by (increase): numbers are increases
Description: The Balb/c mice (originated in 1923, it is a popular strain and is used in many different research disciplines. Also classified as an inbred from the production of 20 or more successive brother-sister matings, the Balb/c mouse is albino and small in size) were immunized on Days 1, 15, and 29 with Ovalbumin (Ovalbumin is the main protein found in egg white, commonly used to stimulate an immunological reaction in test animals) in PBS (5 micrograms/injection). On day 50, spleens of the mice were harvested (3 weeks after last boost with Ovalbumin). Cells were cultured (2×10^5/well in triplicate) and incubated with culture medium or test peptides−10 micrograms per ml−for 30 min. Thereafter, additional Ovalbumin was added to the cells at 10 micrograms/ml for in vitro restimulation of the cells. 72 hours later, cell supernatants were harvested and assayed using the Becton Dickinson Mouse Th1/Th2 Cytokine CBA Kit. This kit can be used to measure Interleukin-2 (IL-2), Interleukin-4 (IL-4), Interleukin-5 (IL-5), Interferon-γ (IFN-γ), and Tumor Necrosis Factor-α (TNF-α) protein levels in a single sample.

[2] = system: Primary Human endothelial cells (HUVEC); assay: Endothelial cell migration assay; type: cell-based; conditions: 10 micrograms per ml; 22 hours
Description: Thereafter, designated concentration of testing peptides−10 micrograms per ml−was added in duplicate wells.

| Molecule | antiviral activity of positive control compound (HCMV strain AD169; HCMV in MRC-5 cells) | inhibition of HCMV plaque formation as compared to the virus control experiment (HCMV strain AD169) [%] | inhibition of HBV replication as compared to the virus control infection [1] [%] | inhibition of the tube formation of human endothelial cells (HUVEC) [%] | production of IL-4, induced/increased by (murine spleen cells; increase) [%] | production of IL-5, decreased by (murine spleen cells) | production of IFN-y, induced/increased by (murine spleen cells) | production of IL-2, induced/increased by (murine spleen cells) | production of TNF-alpha, induced by (increase) (murine spleen cells) | inhibition of the migration of human endothelial cells [2] | production of IL-4, decreased by (murine spleen cells; decrease) [%] |
| --- | --- | --- | --- | --- | --- | --- | --- | --- | --- | --- | --- |
| Nc1nc(O)c2ncn(COC(CO)CO)c2n1 [Ganciclovir, reference compound] | expected levels of antiviral activity |  |  |  |  |  |  |  |  |  |  |
| CCNC(=O)[C@@H]1CCCN1C(=O)[C@H](CCCNC(=N)N)NC(=O)[C@H](CC(C)C)NC(=O)CNC(=O)[C@H](Cc1ccc(O)cc1)NC(=O)[C@H](CO)NC(=O)[C@H](Cc1c[nH]c2ccccc12)NC(=O)[C@H](Cc1c[nH]cn1)NC(=O)[C@@H]1CCC(=O)N1 [Peptide 1] ([pGlu]HWSYGLRP-NHEt) |  | 2.1 | 47.1 | 11 | 139.7 | did not significantly change | 114.7% | 168.2% | 27.5% | 26% |  |
| YGGFMTSEKSQTPLVTLFKNAIIKNAY [Peptide 2] |  | 0.7 | 0 | 11 |  | 48.1% | did not significantly change | did not significantly change | did not significantly change | no effect | 31.5 |
